“And” between values parts separate entries of the source, which are not always exact repeats. Equal entries are not always repeated. Where two headings read alike, the source gives them in different places.
Columns and labels:
HepG2 cells = type: cell-based, Human; settings: then 20 mM AAPH 24 h, MTT; for Increase of viability of cells compared to PC: 100 µM peptide 24 h, p < 0.05; for Cytoprotective effect against AAPH-induced damage: 50 or 100 µM peptide 24 h
Procedure: Human hepatocellular carcinoma (HepG2) cells were purchased from the American Type Culture Collection (ATCC; Manassas, VA, USA). They were cultured at 37 °C in a humidified incubator with 5% CO2 and 95% air. Dulbecco’s Minimal Essential Media (DMEM) supplemented with 10% (v/v) Fetal Bovine Serum was used for the maintenance of cells. […] The MTT (3-(4,5-dimethylthiazol-2-yl)-2,5-diphenyltetrazolium bromide) assay, as described in an earlier research, was used for cytotoxicity and cytoprotective tests. […] Following another 24 h incubation, cells were washed twice with 200 µL of PBS. Ten µL of MTT solution (5 mg/mL in PBS) and 100 µL of media were added to each well. After 1 h, MTT solution was removed, and 50 µL DMSO were added. Absorbances were recorded at 570 nm with 630 nm background subtraction using a BioTek Epoch™ microplate reader (Fisher Scientific, Nepean, ON, Canada). Untreated cells were used as negative control (NC) and cells treated with only AAPH were used as positive control (PC).

[1] = system: superoxide dismutase (SOD); assay: Superoxide dismutase activity of lysates of AAPH-stressed cells; type: cell-based, Human; settings: 50 µM peptide 24 h, then AAPH 24 h
Procedure: (§1) Cells were seeded at 1 × 10^6 cells/plate in 60 mm tissue culture plates and allowed to grow for 24 h. In each plate, cells were washed twice with 4 mL of PBS (pH 7.2), and treated with 4 mL peptide samples (P1, P2, P6, P7) dissolved in culture media at 50 or 100 µM for 24 h. After removal of peptide solutions, cells were washed twice with 4 mL of PBS/plate and treated with 4 mL of […] dissolved in culture media and allowed to incubate for 24 h. Cells in each culture plate were harvested by incubation (5 min) with 0.5 mL of 0.25% trypsin, addition of 1 mL of culture media and centrifugation at 1000× g for 5 min. Cell pellets were washed with ice cold PBS (500 µL each) until no pink color was observed, re-suspended in ice cold PBS (300 µL) for the superoxide dismutase (SOD) assay, 500 µL for glutathione peroxidase (GPx) and catalase (CAT) assays. For total glutathione assay, 300 µL of 5% ice cold sulfosalicylic acid bubbled with 100% nitrogen was used for cell lysis. Cells were lysed by sonication on ice for 1 min using a probe-type sonicator (Vibra-Cell, Sonics and Materials Inc., Newtown, CT, USA) pulsing at 15 s on and 10 s off cycles. Following centrifugation of cell lysate at 13,000× g (4 °C), pellets containing cell debris were discarded, while supernatants were used for determination of glutathione content. Protein contents were determined using a modified Lowry assay.
The SOD activity was measured based on the rate of reduction of nitroblue tetrazolium (2.24 mM) to formazan by xanthine oxidase (13.2 U/mL) at 560 nm. Eight concentrations of each cell extract ([…] protein/mL) or SOD standard (2–500 ng/mL) were used to obtain inhibition curves. Specifically, 20 µL of cell sample, or buffer (blank) was mixed with 160 µL of assay solution, and 20 µL of xanthine oxidase was added to initiate the reaction. The reduction of nitroblue tetrazolium to blue formazan by O2^−• generated in situ was followed at 560 nm. SOD activities were calculated and expressed as units per milligram of protein.

catalase (CAT) = assay: Catalase activity of lysates of AAPH-stressed cells; type: cell-based, Human
Procedure: as §1, with “assay. To measure the catalase activity, 1790 µL potassium phosphate buffer (50 mM, pH 7.0) was mixed with 200 µL cell lysate in a UV cuvette. Ten µL of H2O2 (30%) was added, and removal of H2O2 by catalase was followed at 240 nm using a Cary 50 Bio UV-Vis spectrophotometer with 18-cell changer (Varian Inc., Mississauga, ON, Canada). The activity was expressed as a percentage of control.” for “assay.”

[2] = system: glutathione peroxidase (GPx); assay: Glutathione peroxidase activity of lysates of AAPH-stressed cells; type: cell-based, Human; settings: for Effect on GPx activity of AAPH-stressed cells: then AAPH 24 h
Procedure: as §1
The activity of GPx was determined as previously described in a 96-well plate. Briefly, in each well, 187.5 µL of potassium phosphate buffer was mixed with 12.5 µL NADPH (4 mM) solution and 25 µL of cell lysates or buffer (blank), and incubated at 30 °C for 5 min. Then, 100 µL of 0.15% cumene hydroperoxide was added in each well to begin the reaction. The rate of disappearance of NADPH was followed at 340 nm for 5 min. The activity was expressed as Units of GPx activity/mg protein.

[3] = Oxygen radical absorbance capacity (ORAC) assay; settings: fluorescein 0.08 µM, AAPH 150 mM, 37 °C, 50 min, potassium phosphate buffer pH 7.4 75 mM, peptides 100 and 200 µM; triplicate, mean ± STDEV
Procedure: The ORAC assay was performed as previously described. The decay of fluorescein (0.08 µM) by AAPH (150 mM) at 37 °C was recorded at 1 min intervals over 50 min using a BioTek™ FL × 800™ fluorescent microplate reader (Fisher Scientific, Nepean, ON, Canada) with fluorescence filters (excitation 485/20 nm, emission 528/20 nm). Potassium phosphate buffer (pH 7.4, 75 mM) was used to dissolve peptides (100 and 200 µM) and Trolox standards (6.25–100 µM). Data analysis was done with Gen5^TM software (Fisher Scientific, Nepean, ON, Canada), and ORAC values were expressed as µM Trolox Equivalent (TE)/µM peptide using the standard curve.

[4] = system: glutathione (GSH) of HepG2 cells; assay: Cellular glutathione, enzymatic recycling method; type: cell-based, Human; settings: treatment with AAPH alone, 24 h
Procedure: as §1
The assay was based on the enzymatic recycling method adjusted for 96-well plates. All solutions were prepared in sodium phosphate buffer (125 mM, pH 7.5) that contained 6.3 mM EDTA (ethylenediaminetetraacetic acid). In summary, 60 µL of 0.35 mM NADPH and 10 µL of 6 mM DTNB were added to wells, this was followed by the addition of 20 µL cell lysate or glutathione (GSH) standard. To initiate the reaction, 10 µL of glutathione reductase (5 IU/mL) was added and the rate of reaction between GSH from cell lysate and DTNB was measured at 412 nm. Total glutathione of cell lysates was calculated based on a standard curve of glutathione.

[5] = cited from earlier work
Procedure: Recent studies have, however, shown that, in addition to fibers and polyphenols, hydrolyzed proteins and peptides also contribute to the health promoting effect of cereals. […] Protein hydrolysates from oats, wheat, and rice have all shown antioxidant activities against common reactive oxygen species (ROS) in various systems. The peroxyl radical scavenging activity of oat proteins in the ... || Peroxyl radical (ROO^•) scavenging activities of P1–P7 were evaluated using the ORAC assay. […] ROO^• scavenging activities can be affected by sequences, molecular weights and the presence of amino acids that can form stable radical intermediates after donation of electrons or protons. The highest activities of P2 and P5 can be explained ...

RAW 264.7 cells = settings: peptides from fish; cited from earlier work
Source text: The physiological role of GSH has long been of interest, particularly its antioxidant function due to the unique redox chemistry of its cysteinyl thiol residue. The oxidation of sulfhydryl groups on amino acids by ROS can lead to the formation of protein disulfide bonds, which can be reduced by GSH into individual sulfhydryl groups. GSH is also a substrate used by GPx in the reduction of peroxides and its concentration often reflects oxidative status of cells.

[6] = 50 µM peptide 24 h, then AAPH 24 h
[7] = peptide from beta-lactoglobulin

## DVNNNANQLEPR [P7, oat protein derived peptide …, synthesized by GenScript]
HepG2 cells
  Increase of viability of cells compared to PC: 8.3%
  Cytoprotective effect against AAPH-induced damage: cytoprotective
[1]
  Effect on SOD activity compared to AAPH treated cells only (PC): did not affect the activity
Catalase (CAT); [6]
  Further increase of CAT activity compared to PC cells: 90%
[2]; 50 µM peptide 24 h
  Effect on GPx activity of AAPH-stressed cells: had no effect
[2]; 100 µM peptide 24 h
  Effect on GPx activity of AAPH-stressed cells: only suppressed the damage caused by AAPH
[3]
  ORAC value (peroxyl radical scavenging activity): 0.14–0.61 µM TE/µM and 0.14 ± 0.04 µM TE/µM

## GQTV [P3, oat protein derived peptide GQTV, synthesized by GenScript]
HepG2 cells
  Cytoprotective effect against AAPH-induced damage: no effect on oxidative damages

## CC(C)(N=NC(C)(C)C(=N)N)C(=N)N.Cl.Cl [AAPH, 2,2′-azobis(2-methylpropionamidine) dihydrochloride, reference compound]
[4]
  Decrease of GSH: 58.1%
Catalase (CAT); treatment with AAPH alone, 24 h
  Increase of CAT activity: ~2 fold
[2]; HepG2 cells incubated with AAPH alone, 24 h
  Decrease of GPx activity relative to NC: 18.2%

## GQTVFNDRLRQGQLL [P4, oat protein derived peptide …, synthesized by GenScript]
HepG2 cells
  Cytoprotective effect against AAPH-induced damage: no effect on oxidative damages
[3]
  ORAC value (peroxyl radical scavenging activity): 0.14–0.61 µM TE/µM

## WYSLAMAASDI [literature peptide from beta-lactoglobulin]
[5]; [7]
  ORAC activity: 2.6 µM/µM

## YAEERYPIL [literature peptide from egg white]
[5]; peptide from egg white
  ORAC activity: 3.5 µM TE/µM

## FNDRLRQGQLL [P1, oat protein derived peptide …, synthesized by GenScript]
HepG2 cells
  Increase of viability of cells compared to PC: 15.5%
  Cytoprotective effect against AAPH-induced damage: cytoprotective
[1]
  Effect on SOD activity compared to AAPH treated cells only (PC): did not affect the activity
Catalase (CAT); [6]
  Effect on CAT activity compared to PC cells: no change was observed
Catalase (CAT); 100 µM peptide 24 h, then AAPH 24 h
  Effect on CAT activity: not affected by the peptide concentration
[2]; 50 µM peptide 24 h
  Effect on GPx activity of AAPH-stressed cells: completely restored the activity
[3]
  ORAC value (peroxyl radical scavenging activity): 0.14–0.61 µM TE/µM

## VCSV [literature peptide from fish]
RAW 264.7 cells
  Increase of ROS due to AAPH: attenuated

## CAAP [literature peptide from fish]
RAW 264.7 cells
  Increase of ROS due to AAPH: attenuated

## MHIRL [literature peptide from beta-lactoglobulin]
[5]; [7]
  ORAC activity: 0.306 µM TE/µM
